Source: patent publication US20170280720A1, “ARGININE […] INHIBITORS AND USES THEREOF” (EPIZYME, INC., priority 2014, published 2017)
pIC50: −log10 of the molar value.

target: T1, Human CARM1 (PRMT4) (Homo sapiens, UniProt Q86X55); assay: CARM1 biochemical assay (3H-SAM Flashplate, peptide substrate); conditions: read-out: CARM1_ IC50
T1 construct: Flag-CARM1-His; made in house; host or cells: HEK 293F cells (BacMam baculovirus, pFastBacMam)
T1 sequence (Q86X55 2-585 isoform Q86X55-1): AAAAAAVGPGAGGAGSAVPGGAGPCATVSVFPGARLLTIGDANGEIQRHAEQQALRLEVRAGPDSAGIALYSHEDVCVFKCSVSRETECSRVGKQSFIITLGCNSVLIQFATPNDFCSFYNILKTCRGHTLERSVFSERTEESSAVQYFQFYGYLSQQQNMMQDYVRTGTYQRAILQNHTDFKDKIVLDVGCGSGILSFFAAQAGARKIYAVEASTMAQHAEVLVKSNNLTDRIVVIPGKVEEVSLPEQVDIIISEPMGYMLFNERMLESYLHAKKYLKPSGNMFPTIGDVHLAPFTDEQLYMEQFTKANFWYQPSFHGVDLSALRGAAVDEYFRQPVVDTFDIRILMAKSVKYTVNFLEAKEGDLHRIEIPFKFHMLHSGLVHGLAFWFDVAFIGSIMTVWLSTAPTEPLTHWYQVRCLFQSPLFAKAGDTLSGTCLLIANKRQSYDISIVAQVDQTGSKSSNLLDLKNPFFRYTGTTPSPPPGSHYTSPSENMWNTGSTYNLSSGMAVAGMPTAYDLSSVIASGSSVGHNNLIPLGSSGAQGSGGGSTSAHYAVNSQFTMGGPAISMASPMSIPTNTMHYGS
Source text: S-adenosylmethionine (SAM), S-adenosylhomocysteine (SAH), bicine, Tween20, dimethylsulfoxide (DMSO), bovine skin gelatin (BSG), sodium butyrate and Tris(2-carboxyethyl)phosphine hydrochloride solution (TCEP) were purchased from Sigma-Aldrich at the highest level of purity possible. ^3H-SAM was purchase from American Radiolabeled Chemicals with a specific activity of 80 Ci/mmol. 384-well streptavidin Flashplates were purchased from PerkinElmer.
Peptide representative of human histone H3 residues 16-30 was synthesized with an N-terminal linker-affinity tag motif and a C-terminal amide cap by 21st Century Biochemicals. The peptide was purified by high-performance liquid chromatography (HPLC) to greater than 95% purity and confirmed by liquid chromatography mass spectrometry (LC-MS). The sequence was Biot-Ahx-[…]-amide and contained a monomethylated arginine at position 26 (SEQ ID NO.: 14).
Human CARM1 (PRMT4) (NM_199141.1) transcript clone was amplified from an HEK 293 cDNA library, incorporating a flanking 5′ sequence encoding a FLAG tag ([…]) (SEQ ID NO.: 6) fused directly to Ala 2 of CARM1 and 3′ sequence encoding a hexa His sequence ([…]) (SEQ ID NO.: 15) fused directly to Ser 608. The gene sequence encoding isoform1 containing a deletion of amino acids 539-561 was amplified subsequently and subcloned into pFastBacMam (Viva Biotech).
Recombinant baculovirus were generated according to Bac-to-Bac kit instructions (Life Technologies). […] Infections were carried out at 37° C. for 48 hours, harvested by centrifugation, and stored at −80° C. for purification.
Column was washed with 500 mM NaCl in buffer A and Flag-CARM1-His was eluted with 200 ug/ml FLAG peptide in buffer A. Pooled fractions were dialyzed in 20 mM Tris, 150 mM NaCl, 5% glycerol and 1 mM DTT, pH 7.8. The purity of recovered protein was 94.
General Procedure for CARM1 Enzyme Assays on Peptide Substrates.
The assays were all performed in a buffer consisting of 20 mM Bicine (pH=7.6), 1 mM TCEP, 0.005% BSG, and 0.002% Tween 20, prepared on the day of use. Compounds in 100% DMSO (1 ul) were spotted into a polypropylene 384-well V-bottom plates (Greiner) using a Platemate Plus outfitted with a 384-channel head (Thermo Scientific). DMSO (1 ul) was added to Columns 11, 12, 23, 24, rows A-H for the maximum signal control and 1 ul of SAH, a known product and inhibitor of CARM1, was added to columns 11, 12, 23, 24, rows I-P for the minimum signal control. A cocktail (40 ul) containing the CARM1 enzyme was added by Multidrop Combi (Thermo-Fisher). The compounds were allowed to incubate with CARM1 for 30 min at room temperature, then a cocktail (10 ul) containing ^3H-SAM and peptide was added to initiate the reaction (final volume=51 ul). The final concentrations of the components were as follows: CARM1 was 0.25 nM, ^3H-SAM was 30 nM, peptide was 250 nM, SAH in the minimum signal control wells was 1 mM, and the DMSO concentration was 2%. The assays were stopped by the addition of non-radiolabeled SAM (10 ul) to a final concentration of 300 uM, which dilutes the ^3H-SAM to a level where its incorporation into the peptide substrate is no longer detectable. 50 ul of the reaction in the 384-well polypropylene plate was then transferred to a 384-well Flashplate and the biotinylated peptides were allowed to bind to the streptavidin surface for at least 1 hour before being washed once with 0.1% Tween20 in a Biotek ELx405 plate washer. The plates were then read in a PerkinElmer TopCount plate reader to measure the quantity of ^3H-labeled peptide bound to the Flashplate surface, measured as disintegrations per minute (dpm) or alternatively, referred to as counts per minute (cpm).
Where dpm=disintegrations per minute, cmpd=signal in assay well, and min and max are the respective minimum and maximum signal controls.
Where top and bottom are the normally allowed to float, but may be fixed at 100 or 0 respectively in a 3-parameter fit. […]

| Compound | pIC50 |
| --- | --- |
| CNCCN(C)Cc1cccc(-c2cc(-c3cn[nH]c3)c3cnn(C(C)C)c3n2)c1 [Compound 192] | 7.88 |
| CNCCN(C)Cc1cccc(-c2cc(-c3c(C)n[nH]c3C)c3cnn(C(C)C)c3n2)c1 [Compound 200] | 7.78 |
| CNCCN(C)Cc1cccc(-c2cc(C(=O)NC(C)c3ccccc3)c3cnn(C4CCOCC4)c3n2)c1 (stereo not drawn) [Compound 248] | 7.26 |
| CNCCN(C)Cc1cccc(-c2cc(C(=O)N[C@@H](C)c3ccccc3)c3cnn(Cc4cccnc4)c3n2)c1 [Compound 249] | 7.24 |
| CNCCN(C)Cc1cccc(-c2cc(CN(C)OC)c3cnn(C(C)C)c3n2)c1 [Compound 264] | 7.13 |
| Cc1c(C(=O)NCC2CCOCC2)cc(-c2cccc(CN(C)CCN)c2)cc1N(C)CC1CC1 [Compound 267] | 7.12 |
| CNCCN(C)Cc1cccc(-c2cc(C(=O)NCc3ccccc3Cl)c3cnn(C(C)C)c3n2)c1 [Compound 268] | 7.11 |
| CNCCN(C)Cc1cccc(-c2cc(C(=O)NCC3CCOCC3)c3cnn(CC4CC4)c3n2)c1 [Compound 285] | 6.86 |
| CNCCN(C)Cc1cccc(-c2cc(C(=O)N3Cc4ccccc4C3)c3cnn(C(C)C)c3n2)c1 [Compound 291] | 6.78 |
| CNCCN(C)Cc1cccc(-c2cc(C(=O)N3CCC(F)(F)C3)c3cnn(C(C)C)c3n2)c1 [Compound 299] | 6.69 |
| CNCCN(C)Cc1cccc(-c2cc(C(=O)N3CCC(OC)C3)c3cnn(C(C)C)c3n2)c1 (stereo not drawn) [Compound 302] | 6.63 |
| CNCCN(C)Cc1cccc(-c2cc(C(=O)N[C@@H](C)c3ccccc3)c3cn(Cc4ccccc4F)nc3n2)c1 [Compound 305] | 6.62 |
| CNCCN(C)Cc1cccc(-c2cc(C(=O)NCC3CCOCC3)c3cnn(CC#N)c3n2)c1 [Compound 306] | 6.61 |
| CC(C)n1cc2c(C(=O)NC3CCOCC3)cc(-c3cccc(CN(C)CCN)c3)nc2n1 [Compound 308] | 6.60 |
| CNCCN(C)Cc1cccc(-c2cc(C(=O)N(C)CC(F)(F)F)c3cnn(C(C)C)c3n2)c1 [Compound 310] | 6.55 |

The remaining compounds from weak to strong by pIC50, led by results:

| pIC50 | Compound |
| --- | --- |
| 7.34 | CNCCN(C)Cc1cccc(-c2cc(C(=O)N[C@@H](C)c3ccccc3)c3cn(Cc4cccnc4)nc3n2)c1 [Compound 236] |
| 7.40 | CNCCN(C)Cc1cccc(-c2cc(NCC3CC3)c3cnn(C(C)C)c3n2)c1 [Compound 226] |
| 7.42 | CNCCN(C)Cc1cccc(-c2cc(C(=O)N[C@@H](C)c3ccccc3)c3cnn(Cc4ccccn4)c3n2)c1 [Compound 225] |
| 7.49 | CNCCN(C)Cc1cccc(-c2cc(C(=O)N[C@@H](C)c3ccccc3)c3cn(Cc4ccccn4)nc3n2)c1 [Compound 221] |
| 7.50 | CNCCN(C)Cc1cccc(-c2cc(C(=O)NCC3COC3)c3cnn(C(C)C)c3n2)c1 [Compound 219] |
| 7.51 | CNCCN(C)Cc1cccc(-c2cc(N(CC3CC3)CC3CC3)c3cnn(C(C)C)c3n2)c1 [Compound 218] |
| 7.52 | CNCCN(C)Cc1cccc(-c2cc(C(=O)N[C@@H](C)c3ccccc3)c3cn(Cc4ccncc4)nc3n2)c1 [Compound 216] |
| 7.59 | CNCCN(C)Cc1cccc(-c2cc(C(=O)N[C@@H](C)c3ccccc3)c3cn(Cc4ccccc4)nc3n2)c1 [Compound 213] |
| 7.72 | CC(C)n1ncc2c(C(=O)NCC3COC3)cc(-c3cccc(CN(C)CCN)c3)nc21 [Compound 204] |
| 7.72 | CNCCN(C)Cc1cccc(-c2cc(OCC3CC3)c3cnn(C(C)C)c3n2)c1 [Compound 203] |
| 7.85 | CNCCN(C)Cc1cccc(-c2cc(-c3ccncc3)c3cnn(C(C)C)c3n2)c1 [Compound 196] |
| 7.89 | CNCCN(C)Cc1cccc(-c2cc(Nc3ccncc3)c3cnn(C(C)C)c3n2)c1 [Compound 191] |
| 7.93 | Cc1cc(CNC(=O)c2cc(-c3cccc(CN(C)CCN)c3)nc3c2cnn3C(C)C)no1 [Compound 184] |
| 8.12 | CNCCN(C)Cc1cccc(-c2cc(-c3csc(C)n3)c3cnn(C(C)C)c3n2)c1 [Compound 178] |
| 8.13 | CNCCN(C)Cc1cccc(-c2cc(N3CCCCC3)c3cnn(C(C)C)c3n2)c1 [Compound 177] |
